Here are results for one compound from paper PMC8068036, “Synthesis of New Biscoumarin Derivatives, In Vitro Cholinesterase Inhibition, Molecular Modelling and Antiproliferative Effect in A549 Human Lung Carcinoma Cells” (International Journal of Molecular Sciences, 2021).

One may read the IC50 as the point on the concentration scale where inhibition reaches its midpoint.

SMILES strings stand for the structures. Where two headings read alike, the source gives them in different places.

For series [1], the system named is A549 cells. Nature of the series: Colony-forming assay. The series is classed as cell-based, human. Conditions: 65 μM, 24 h treatment, 7 days cultivation, vs untreated control. On the procedure: For the colony-forming assay, floating and adherent cells were harvested together 24 h after treatment with the studied derivatives (35 and 65 µM). The cells were then counted using a Bürker chamber with eosin staining, and 500 viable cells per well were seeded in 6-well plates. After 7 days of cultivation under standard conditions, the cells in the plates were fixed and stained with 1% methylene blue dye in methanol. Visualized colonies were scanned and counted, and the results were evaluated as percentages of the untreated control. The results are presented as the average percentage of colonies from three independent experiments.

Series [2] deals with A549 cells. Nature of the series: Apoptosis by cleaved PARP immunolabelling. Conditions: A549, 24 h. The series is classed as cell-based, human. On the procedure: The studied biscoumarin derivatives were added to cells seeded on 12-well μ-Chamber slides for 24 h. After cultivation with the derivatives, the samples (both the control without the derivatives and experimental groups) were washed with a 0.1 M PBS solution buffer to remove all non-cell-absorbed derivative residues and fixed with 4% paraformaldehyde for 20 min at RT. Alternatively, cells were incubated with Mitotracker Red (0.5 µM; Thermo Fisher Scientific, Waltham, MA, USA) for 30 min at 37 °C, washed with 0.1 M PBS, and fixed with 4% paraformaldehyde for 20 min at RT. For the quantification of proliferative activity and programmed cell death, samples were incubated overnight at 4 °C with the mouse anti-Ki67 antibody (NCL-L-Ki67-MM1, 1:100, Leica Biosystems, Wetzlar, Germany) and rabbit anti-cleaved PARP (cat. no. 94885, 1:100, Cell Signaling, Danvers, MA, USA) diluted in 0.1 M PBS containing 1% normal donkey serum (Jackson Immunoresearch, Cambridgeshire, Great Britain) and 0.3% Triton-X 100. […]
All samples were evaluated using a Leica TCS SP5X confocal system (Leica Microsystems, Mannheim, Germany). The biscoumarin derivatives were visualized in cells using a 405 nm laser, and the fluorescence was captured in the range of 420–480 nm with identical exposure parameters for all samples. […]

Another series deals with CCD-18Co fibroblasts. The series can be described thus: MTT assay, CCD-18Co. The format is cell-based. The settings on record: for IC50: Homo sapiens, CCD-18Co. The protocol:
(§1) Human lung carcinoma cell line A549 and CCD-18Co colon fibroblasts were purchased from the American Type Culture Collection (ATCC, Rockville, MD, USA). The A549 cells were cultured in a complete RPMI-1640 medium (Sigma-Aldrich, St. Louis, MO, USA), and CCD-18Co cells were cultured in an MEM medium (PAN-Biotech GmbH, Aidenbach, Germany). The media were supplemented with 10% fetal bovine serum (FBS; Biosera, Nuaille, France) and antibiotics (1% Antibiotic-Antimycotic 100× and 50 × 10^−3 g l^−1 gentamicin; Biosera) at 37 °C, 95% humidity, and 5% CO2.
(§2) Prior to the selected treatments, cells were seeded on 12-well μ-Chamber slides (ibidi GmbH, Martinsried, Germany) and 6 and/or 96-well plates (TPP, Trasadingen, Switzerland) and left to settle for 24 h. The biscoumarin derivative solutions (at concentrations ranging from 10–100 µM) were then added to cells for 24 or 48 h, and analysis was subsequently performed.
(§3) MTT assays were performed in order to evaluate changes in the metabolic activity of cells that had occurred as a consequence of treatment with the biscoumarin derivatives. A549 cells (15 × 10^3 cells/cm^2) and CCD-18Co ([…]) were seeded in 96-well microplates. The cells were treated for 24 and 48 h with different concentrations (10, 25, 35, 50, 65, 75, and 100 µM) of the derivatives. After the treatment, the MTT (3-(4,5-dimethylthiazol-2-yl)-2,5-diphenyltertrazolium bromide) solution in PBS (5 mg mL^−1) was added to each well. […]. The absorbance of formazan (λ = 584 nm) was measured using a BMG FLUOstar Optima spectrometer (BMG Labtech GmbH, Offenburg, Germany). The results were evaluated as percentages of the absorbance of the untreated control. Results are presented as the average percentage of cells from three independent experiments. IC50 values for the derivatives were extrapolated from a sigmoidal fit (dose–response curve) to the metabolic activity data using OriginPro 8.5.0 SR1 (OriginLab Corp., Northampton, MA, USA).
On the technique in general: Formazan colour is commonly taken as a measure of viable cells.

For series [3], the system named is A549 cells. Nature of the series: Quantification of cell number and viability (eosin staining). The format is cell-based, human. The settings on record: 35 and 65 μM, 24 h, eosin negative cells. The protocol:
For the assessment of total cell numbers and viability within individual experimental groups, floating and adherent cells were harvested after treatment with the studied derivatives and evaluated using a Bürker chamber with eosin staining. A549 cells were plated at a density of 135 × 10^3 cell/well into a 6-well plate and treated with different concentrations of derivatives (35 and 65 µM) for 24 hrs. The total cell number was expressed as a percentage of the total cell number of the untreated control. Viability was expressed as a percentage of viable, eosin negative cells. The results are presented as the average percentage of cells from three independent experiments.

The test system of series [4] is A549 cells. The series can be described thus: MTT assay, A549. The series is classed as cell-based, human. Conditions: for IC50: Homo sapiens. The protocol:
as §1, §2, §3

Regarding `COC(=O)Cc1cc(=O)oc2cc(OCCCCCCCCN3CCN(CCNC(=O)Cc4cc(=O)oc5cc(O)ccc45)CC3)ccc12` [12e, Methyl 2-[7-({2-[4-(2-{[2-(7-hydroxy-2-oxo-2H-4-chromenyl)acetyl]amino}etyl)piperazino]oktyl}oxy)-2-oxo-2H-4-chromenyl]acetate], the “Reduction in relative number of colonies” value in the series on A549 cells [1] came to 20%. Besides, in the series with A549 cells [2], the “Apoptotic cells (cleaved PARP)” value is listed as ≤ 0.001%. In addition, in the series with CCD-18Co fibroblasts (24 or 48 h), the “Metabolic activity of CCD-18Co cells (in words)” value was “significantly reduced metabolic activity”. In addition, the IC50 in the series on CCD-18Co fibroblasts (24 h, read-out: IC50 CCD-18Co 24 h) is > 100 µM; with CCD-18Co fibroblasts (read-out: IC50 CCD-18Co 48 h, 48 h), > 100 µM; with CCD-18Co fibroblasts (time not stated, read-out: IC50 CCD-18Co), > 100 µM; with A549 cells [4] (A549, 24 h, read-out: IC50 A549 24 h), 49 µM; with A549 cells [4] (A549, read-out: IC50 A549 48 h, 48 h), 35 µM. In the series on A549 cells [3], the “Cell viability of A549 (in words)” value was “reduced cell viability at a concentration of 65 μM”. For the same compound, the “Metabolic activity of A549 cells (in words)” value with A549 cells [4] (10 to 100 μM, 24 and 48 h) was “significant decrease”.
